How the values were obtained:
C57BL/6 mice = assay: Anti-fibrotic screening of amorphous drug formulations in 500 μm alginate capsules, 2-week intraperitoneal implantation; type: in vivo; settings: conclusion; alginate hydrogel, ceramic, glass, PDMS and polystyrene beads
Excerpt: For screening of anti-fibrotic drug activity, amorphous drug formulations were encapsulated inside 500 μm alginate capsules. Broad-spectrum anti-inflammatory agents curcumin, dexamethasone, and rapamycin have been used for preventing fibrosis of various biomaterials, such as polymer PLGA and hydrogel alginate. A panel of lead drug candidates (e.g., compounds of Formulae I-X) including the traditional broad-spectrum anti-inflammatories as well as agents targeted to essential macrophage biology pathways (e.g., TNFα, NFκB, p110δ/PI3K, TGFβ, and CSF1R) were selected. […] SLG20 alginate hydrogel spheres with these lead drug candidates were prepared as amorphous formulations to investigate the effect of macrophage immunomodulation on foreign body response. Drugs were encapsulated in amorphous form prepared by first dissolving in an organic solvent (e.g., vehicle in FIGS. 7, 9) then by mixing with alginate aqueous solution. Efficacy in preventing fibrosis was assessed in C57BL/6 mice at 2-weeks post implantation into the intraperitoneal (IP) cavity. Drug-containing spheres (500 μl/animal) were then implanted into the intraperitoneal space of C57BL/6 mice for 14 days. After this period, spheres were harvested and studied for cellular deposition and fibrosis.
All animal protocols were approved by the MIT Committee on Animal Care, and all surgical procedures and post-operative care was supervised by MIT Division of Comparative Medicine veterinary staff. Immune-competent male non-diabetic or STZ-induced diabetic C57BL/6 mice (Jackson Laboratory, Bar Harbor, Me.) were anesthetized with 3% isoflurane in oxygen and had their abdomens shaved and sterilized using betadine and isopropanol. Preoperatively, all mice also received a 0.05 mg/kg dose of buprenorphine subcutaneously as a pre-surgical analgesic, along with 0.3 mL of 0.9% saline subcutaneously to prevent dehydration. A […] incision was made along the midline of the abdomen and the peritoneal lining was exposed using blunt dissection. […]

[1] = system: non-human primates (cynomolgus macaques); assay: Crystalline GW2580 alginate capsules (0.5 and 1.5 mm) implanted IP and SC in non-human primates, foreign body response; type: in vivo; settings: for macrophage responses on retrieved capsules (FACS): all cases of remaining drug
Description: Lead candidates identified in these studies, like GW2580, were subsequently tested in a non-human primate (NHP) model in which capsules (0.5 and 1.5 mm) were implanted in both the intraperitoneal (IP) and subcutaneous (SC) spaces (FIGS. 12 and 13C). […] IP space (lavage) drug concentrations were traced by LCMS fort each capsule type following retrieval time points, and found to drop from only 2-3 ng/ml at 4 weeks post-implantation to below detectable limit (0.5 ng/ml) beyond. […] And while 0.5 mm drug-loaded capsules became clumped at 3 months, they were not extensively embedded into surrounding omental tissue until 6 months (FIGS. 12, 23B and 23C).
For non-human primate (NHP) procedures, buprenorphine (0.01-0.03 mg/kg) was administered as a pre-operative analgesic. NHPs were then sedated using an intramuscular (IM) injection of ketamine (10 mg/kg) with an addition of midazolam as dictated by DCM vet staff if needed for additional sedation. Animals were maintained on a circulating warm water blanket and covered with a towel during the procedure to maintain body temperature. Either 0.5 or 1.5 mm diameter (drug-loaded) SLG20 spheres were implanted by minimally invasive laparoscopic surgery, and injected into the dorsal (back) regions of 4 non-human primates (cynomolgus macaques) using 18 and 12 gauge custom-manufactured (Harvard Apparatus) sterile stainless steel needles, with slip tip syringes in order to prevent shearing of our biomaterial upon injection. Needles were inserted tangentially to the backs of the NHPs, and were slid (tunneled) approximately 1-2 cm away from the initial injection point, in order to try to separate the injection from that of the site of eventual material response. Spheres (0.5 and 1.5 mm diameter) were injected into 4 total spots on the flank of 4 of our non-human primates: two spots on the left flank and two on the right, for 0.5 mm and 1.5 mm diameter sphere implants, respectively.
For non-human primate intraperitoneal and subcutaneous retrievals, similar to when material was implanted, NHPs were once again given buprenorphine (0.01-0.03 mg/kg) as a pre-operative analgesic, and sedated using an IM injection of ketamine (10 mg/kg), with midazolam as dictated by DCM vet staff if needed for additional sedation. Animals were once again maintained on a circulating warm water blanket and covered with a towel during the procedure to maintain body temperature. 8 mm diameter biopsy punches were then used to sample the entire skin and subcutaneous space at 2 and later at 4 weeks post-implantation. Following biopsy punches, the retrieval site was closed with 3-0 nylon in a simple-interrupted pattern and VetBond (tissue glue). For IP retrievals, minimally invasive laparoscopic surgery was also used (similar to implant procedures). […]

COc1ccc(COc2ccc(Cc3cnc(N)nc3N)cc2OC)cc1 [GW2580, 5-[[3-Methoxy-4-[(4-methoxyphenyl)methoxy]phenyl]methyl]-2,4-pyrimidinediamine]
efficacy in inhibiting fibrosis of implanted biomaterial (C57BL/6 mice): demonstrated efficacy in inhibiting fibrosis | sphere embedding and collagen deposition (H&E and Masson's Trichrome) ([1]; 0.5 and 1.5 mm drug-loaded capsules, excised implant-site tissue): lack of sphere embedding and collagen deposition | fibrosis development (phase contrast) ([1]; crystalline, 0.5 and 1.5 mm capsules, 2 and 4 weeks, IP and SC): prevented fibrosis development | macrophage responses on retrieved capsules (FACS) ([1]; crystalline, 0.5 and 1.5 mm capsules): significant inhibition of macrophage responses | macrophage responses on retrieved capsules (FACS) ([1]; crystalline, 0.5 and 1.5 mm capsules, listed as GW): reduced multiple orders of magnitude
